According to article PMC8292346, “Dysfunction of the key ferroptosis-surveilling systems hypersensitizes mice to tubular necrosis during acute kidney injury” (Nature Communications, 2021):
Several values for one entry are separate records, joined by “and”; a condition that tells them apart may be missing. Identical values can stand only once.

Assays:
[1] = test system: Mouse cortical tubule cells (MCT); assay: FINs/ferroptocide, 7-AAD/annexin V flow cytometry; format: cell-based; conditions: MCT, alone (DMSO) or with Fer-1 1 µM, Nec-1s 30 µM, Nec-1f 30 µM
Description: (§1) To induce necroptosis in a human cell line, HT29 cells were stimulated at the indicated time points with 20 ng/ml human TNFα (Biolegend), 1 μM SMAC-mimetics (Birinapant, Chemietek), and 20 μM zVAD-fmk (Selleckchem, herein referred to as zVAD). For the induction of necroptosis in NIH3T3 cells, cells were incubated with 20 ng/ml TNF-α and 20 μM zVAD for indicated time points. […] Cells were seeded in six-well plates or petri dishes. […] After indicated time points, cells were collected and prepared for flow cytometry, immunoblotting, and/or LDH release assays.
(§2) Cells were harvested and the pellets were washed twice in PBS and stained with 5 μl of 7-AAD (BD Biosciences) and 5 μl of annexin-V-FITC (BD Biosciences) added to 100 μl annexin-V binding buffer (BD Biosciences). After 15 min, cells were recorded on the LSRII with the FACS Diva 6.1.1 software (BD Biosciences) and subsequently analyzed with the FlowJo v10 software (Tree Star).

[2] = test system: HT29 cells; assay: TSZ-induced necroptosis, 7-AAD/annexin V flow cytometry; format: cell-based, human; conditions: Nec-1f 10 µM
Description: as §1, §2

[3] = test system: NIH3T3 cells; assay: Ferroptosis inducers (FINs)/ferroptocide, 7-AAD/annexin V flow cytometry; format: cell-based, murine; conditions: individual replicates
[4] = test system: NIH3T3 cells; assay: as above; format: cell-based, murine; conditions: alone (DMSO) or with Fer-1 1 µM, Nec-1s 30 µM, Nec-1f 30 µM
Description: as §1, §2

[5] = test system: NIH3T3 cells; assay: Simultaneous ferroptosis and necroptosis (RSL3 plus TZ), 7-AAD/annexin V flow cytometry; format: cell-based, murine; conditions: NIH3T3, 16 h
Description: as §1, §2

[6] = test system: MLKL; assay: Western blot of pMLKL (S358) in TSZ-treated HT29 cells; format: cell-based, human; conditions: Nec-1s 10 µM, Fer-1 1 µM, Nec-1f 10 µM
Description: as §1
(§3) Cells were lysed in ice-cold 10 mM Tris-HCl, pH 7.5, 50 mM NaCl, 1% Triton X-100, 30 mM sodium pyrophosphate, 50 mM NaF, 100 μM Na3VO4, 2 μM ZnCl2, and 1 mM phenylmethylsulfonyl fluoride (PMSF, modified Frackelton buffer) for 30 min on ice. Insoluble material was removed by centrifugation (14 000×g, 30 min, 4 °C). Protein concentration was determined using a commercial Bradford assay kit according to the manufacturer’s instructions (Thermo Fisher). Equal amounts of protein (typically 30 μg per lane) were resolved on a 4%−15% gradient SDS/PAGE gel and transferred to a PVDF membrane (BIO-RAD). Primary antibody incubation was performed for anti-pS166-RIPK1 (Cell Signaling, Cat# 65746, 1:1000 dilution), anti-pS358-MLKL, (Abcam, ab187091, 1:1000 dilution), anti-MLKL (Genetex, GTX107538, 1:1000 dilution) and anti-β-Actin (Cell Signaling, Cat# 3700S, 1:1000 dilution). Secondary antibodies (anti-mouse, HRP-linked antibody, Cell Signaling, Cat# 7076S; anti-rabbit, HRP-linked antibody, Cell Signaling, Cat# 7074S) were applied at concentrations of 1:5.000 (also see Supplementary Table 1 for details). Proteins were then visualized by enhanced chemiluminescence (ECL; Amersham Biosciences).

[7] = test system: RIPK1; assay: Western blot of pRIPK1 (S166) in TSZ-treated HT29 cells; format: cell-based, human; conditions: Nec-1s 10 µM, Fer-1 1 µM, Nec-1f 10 µM
Description: as §1, §3

[8] = test system: HT1080 cells; assay: CellTiter-Glo luminescent cell viability assay (ATP), dose-response; format: cell-based, human
Description: Cells were plated in an opaque-walled 96-well plate and treatment with ferroptosis inducers and/or ferroptosis inhibitors was initiated 24 h later. […] Here, the reaction agent was directly added to the wells, mixed on an orbital shaker for 2 min, and then incubated at room temperature for 10 min. The luminescence was detected using a Promega GloMax® instrument.

[9] = test system: HT1080 cells; assay: Ferroptosis inducers (FINs)/ferroptocide, 7-AAD/annexin V flow cytometry; format: cell-based, human; conditions: Nec-1s 30 µM, Nec-1f 30 µM; for double-negative events (7-AAD/annexin V): alone (DMSO) or with Fer-1 1 µM
[10] = test system: CD10-135 cells; assay: FINs/ferroptocide, LDH release assay; format: cell-based, human; design: LDH release: unit not given here; conditions: Nec-1f 30 µM
[11] = test system: C57Bl/6 N mice; assay: Bilateral kidney ischemia-reperfusion injury, severe model (38 min ischemia), survival; conditions: single dose 2 mg/kg body weight before reperfusion

Compound: CN1C(=O)NC(Cc2c[nH]c3c(Cl)cccc23)C1=O (stereo not drawn) [Nec-1s, necrostatin-1s]
- double-negative events (7-AAD/annexin V) ([1]; 5 µM erastin 24 h): 60.5% and 85.4% and 84.9% and 77.6%
- double-negative events (7-AAD/annexin V) ([1]; 10 µM FIN56 24 h): 93.3% and 88% and 89.2%
- 7-AAD/annexin V flow cytometry, source data of bar graph Fig2e ([2]; HT29, TSZ (TNFα 20 ng/ml, birinapant 1 µM, zVAD-fmk 20 µM) 16 h): 77% and 78.7% and 91.4% and 88.7%
- Protection against TSZ-induced necroptosis (7-AAD/annexin V, words) ([2]; HT29, TSZ): maintained double negativity
- cells in 7-AAD/annexin V flow cytometry (FigS9b) ([3]; Erastin-induced ferroptosis): 17.0% and 14.0% and 10.0%
- cells in 7-AAD/annexin V flow cytometry (FigS9b) ([3]; FIN56-induced ferroptosis): 57.0% and 34.0%
- cells in 7-AAD/annexin V flow cytometry (FigS9b) ([3]; FINO2-induced ferroptosis): 63.0% and 21.0%
- cells in 7-AAD/annexin V flow cytometry (FigS9b) ([3]; Ferroptocide-induced cell death): 80.0% and 5.0%
- cells in 7-AAD/annexin V flow cytometry (FigS9b) ([3]; RSL3-induced ferroptosis): 71.0% and 41.0%
- double-negative events (7-AAD/annexin V) ([4]; NIH3T3, 5 µM erastin 24 h): 10.2% and 2.01% and 4.47% and 2.99%
- double-negative events (7-AAD/annexin V) ([4]; NIH3T3, 10 µM FIN56 24 h): 88.9% and 92.9% and 90.2%
- double-negative events (7-AAD/annexin V) ([4]; NIH3T3, 10 µM FINO2 24 h): 6.67% and 1.36% and 2.97% and 1.72% and 7.65% and 9.33%
- Rescue from necrosis induced by RSL3 plus TZ [5]: fail to rescue
- Phosphorylation of MLKL (pS358), western blot [6]: comparable between Nec-1s and Nec-1f
- Phosphorylation of RIPK1 at S166, western blot [7]: prevented phosphorylation at S166 in RIPK1
- ATP luminescence (CellTiterGlo) ([8]; HT1080 + Erastin, inhibitor concentration 0.01 (unit not given)): 6.2776%
- ATP luminescence (CellTiterGlo) ([8]; HT1080 + Erastin, inhibitor concentration 0.1 (unit not given)): 6.426%
- ATP luminescence (CellTiterGlo) ([8]; HT1080 + Erastin, inhibitor concentration 1 (unit not given)): 6.611%
- ATP luminescence (CellTiterGlo) ([8]; HT1080 + Erastin, inhibitor concentration 10 (unit not given)): 6.739%
- ATP luminescence (CellTiterGlo) ([8]; HT1080 + Erastin, inhibitor concentration 30 (unit not given)): 13.0792%
- ATP luminescence (CellTiterGlo) ([8]; HT1080 + Ferroptocide, inhibitor concentration 0.01 (unit not given)): 2.171% and 0.348%
- ATP luminescence (CellTiterGlo) ([8]; HT1080 + Ferroptocide, inhibitor concentration 0.1 (unit not given)): 7.287% and 1.309%
- ATP luminescence (CellTiterGlo) ([8]; HT1080 + RSL3, inhibitor concentration 0.01 (unit not given)): 48.9951% and 58.0398%
- ATP luminescence (CellTiterGlo) ([8]; HT1080 + RSL3, inhibitor concentration 0.1 (unit not given)): 48.7049% and 62.3771%
- ATP luminescence (CellTiterGlo) ([8]; HT1080 + RSL3, inhibitor concentration 1 (unit not given)): 60.6314% and 81.5005%
- ATP luminescence (CellTiterGlo) ([8]; HT1080 + RSL3, inhibitor concentration 10 (unit not given)): 61.8212% and 84.0786%
- double-negative events (7-AAD/annexin V) ([9]; HT1080, 1.13 µM RSL3 6 h): 45.5% and 30.5% and 56.9% and 58.4%
- double-negative events (7-AAD/annexin V) ([9]; HT1080, 10 µM FIN56 24 h): 88.1% and 85.1% and 82.1%
- double-negative events (7-AAD/annexin V) ([9]; HT1080, 10 µM ferroptocide 24 h): 42.7% and 26.5%
- Inhibition of cell death induction by FINs/ferroptocide ([9]; HT1080, Fer-1 1 µM): but not by Nec-1s
- LDH release ([10]; CD10-135, FIN56 alone (FIN) or with Fer-1, Nec-1s): 86.05 and 52.2984 and 63.7092
- LDH release ([10]; CD10-135, FINO2 alone (FIN) or with Fer-1, Nec-1s): 71.57 and 72.5571 and 70.4933
- LDH release ([10]; CD10-135, RSL3 alone (FIN) or with Fer-1, Nec-1s): 64.62 and 54.5823
- LDH release ([10]; CD10-135, erastin alone (FIN) or with Fer-1, Nec-1s): 93.98 and 95.3511 and 88.9965
- LDH release ([10]; CD10-135, ferroptocide alone (FIN) or with Fer-1, Nec-1s): 100 and 93.4978
- Survival after severe renal IRI vs vehicle (Kaplan-Meier, words) [11]: not statistically significant
